The test system of assay [1] is mechanical allodynia induced in mice by chronic ligation of the sciatic nerve. Nature of the assay: Mechanical allodynia produced by chronic ligation of the sciatic nerve (von Frey, 50% pain threshold). The class given is in vivo. The settings on record: 7 days after surgery, 45 minutes before measurement. The text has this:
In Example 2, an experimental trial on mechanical allodynia induced in mice by chronic ligation of the sciatic nerve is described, according to the model described in the article by Decosterd et al., Spared nerve injury: an animal model of persistent peripheral neuropathic pain, Pain, 2000, 149-158. This model is based on causing mechanical allodynia in mice by means of ligation of two of the three branches of the sciatic nerve (tibial and peroneal), leaving the sural branch intact. The allodynia induced in this manner is quantified by the reduction observed in the threshold force that is necessary to apply in order to produce animal's paw withdrawal in those subjected to the ligation. As described in such example, it is observed that the administration of different doses of compound Ic is effective in reversing the allodynia induced in this model (FIGS. 1 and 2).
For this trial, groups of 6 to 7 mice were used for each group. Mechanical allodynia was induced in the animals (except for the control group) by chronic ligation of the sciatic nerve, and the allodynia induced in this manner was registered 7 days after performing the surgery.
Compound Ic was administered at different doses (3, 30 and 60 mg/Kg) as well as only saline solution as a control, and the positive control gabapentin (40 mg/Kg). The products were administered by stomach tube 45 minutes before performing the allodynia measurement, which was quantified using von Frey filaments, according to the force threshold necessary to cause paw withdrawal of the animal.
The results are summarized in FIG. 2, where the Y-axis represents half of the threshold force that is necessary to apply in order to cause paw withdrawal (50% pain threshold, in grams, g) and the X-axis indicates the different groups and treatments carried out. […]
An analogous test was carried out in which several doses of compound Ic (30, 60 and 120 mg/Kg) and gabapentin (40 mg/Kg) were administered, and the 50% pain threshold was measured at different times after the administration in order to evaluate the kinetic of the pharmacological effect and the total duration of the anti-allodynic effect. […]

The test system of assay [2] is allodynia induced in mice by injecting paclitaxel. Put plainly: Neuropathic pain induced by chemotherapy (paclitaxel): prevention by coadministration with paclitaxel. The conditions noted are these: 30 mg/Kg orally daily for 5 consecutive days coadministered with paclitaxel, evaluated on the 10th day. The class given is in vivo. The procedure:
In Example 3 an experimental model is used in mice based on inducing allodynia by intraperitoneal injection of paclitaxel, as described in the articles by Smith et al., Paclitaxel-induced neuropathic hypersensitivity in mice: responses in 10 inbred mouse strains, Life Sci., 2014, 2593-2604 and Palomano et al., Chemotherapy-evoked painful peripheral neuropathy, Pain Med., 2001, 2 (1), 8-14. In alternative trials, compound Ic was administered after allodynia induction by paclitaxel, or it was administered jointly with this chemotherapy medication. […]
In this test, groups of mice between 7 and 12 animals were used, to which a daily dose of paclitaxel of 2 mg/Kg was administered by intraperitoneal route for 5 consecutive days (except for the control group). The evaluation of the induced mechanical allodynia was carried out on the 10th day after the first paclitaxel injection, and was quantified by using the von Frey filaments, according to the force threshold necessary to cause the paw withdrawal of the animal.
A second trial was carried out using this same model, according to which a daily dose of compound Ic was administered orally, for 5 consecutive days, coadministered with paclitaxel. The allodynia was evaluated the 10th day after the beginning of the treatment. […]

Molecules are shown by their SMILES.

As for `CO[C@H]1O[C@H](COS(=O)(=O)[O-])[C@@H](OS(=O)(=O)[O-])[C@H](O[C@@H]2O[C@H](C(=O)[O-])[C@@H](O)[C@H](O)[C@H]2O)[C@H]1NC(C)=O.[Na+].[Na+].[Na+]` [Compound Ic, methyl 2-acetamido-2-desoxi-3-O-(β-D-glucopyranosyluronic acid)-4,6-di-O-sulfo-α-D-glucopyranoside trisodium salt], in assay [1] (3 mg/Kg by stomach tube), the anti-allodynic effect result is listed as “notable”. Moreover, the anti-allodynic effect entry in assay [1] (30 mg/Kg by stomach tube) was “notable”. Also, in assay [1] (60 mg/Kg by stomach tube), the analgesic effect entry was “achieved an analgesic effect” and the “reversal of the allodynia” value is “total reversal of the allodynia”. In assay [2], the “prevention of the development of allodynia” value is on record as “prevented the development of allodynia”.

(Values after patent US11046722B2, “Sulphated disaccharides for the treatment of neuropathic pain” (BIOIBERICA, S.A.U., priority 2017, dated 2021).)
